# “And” between values parts separate entries of the source, which are not always exact repeats. Identical values can stand only once.
# Biological target: T1, β-Glucuronidase (E.C. 3.2.1.31 from bovine liver) (Bos taurus, UniProt A3KMY8)
# T1 construct: β-Glucuronidase (E.C. 3.2.1.31 from bovine liver, G-0251); purchased Sigma Chemical Co. (St. Louis, MO, USA) G-0251; host or cells: bovine liver (tissue-derived preparation)
# T1 sequence (A3KMY8 1-652): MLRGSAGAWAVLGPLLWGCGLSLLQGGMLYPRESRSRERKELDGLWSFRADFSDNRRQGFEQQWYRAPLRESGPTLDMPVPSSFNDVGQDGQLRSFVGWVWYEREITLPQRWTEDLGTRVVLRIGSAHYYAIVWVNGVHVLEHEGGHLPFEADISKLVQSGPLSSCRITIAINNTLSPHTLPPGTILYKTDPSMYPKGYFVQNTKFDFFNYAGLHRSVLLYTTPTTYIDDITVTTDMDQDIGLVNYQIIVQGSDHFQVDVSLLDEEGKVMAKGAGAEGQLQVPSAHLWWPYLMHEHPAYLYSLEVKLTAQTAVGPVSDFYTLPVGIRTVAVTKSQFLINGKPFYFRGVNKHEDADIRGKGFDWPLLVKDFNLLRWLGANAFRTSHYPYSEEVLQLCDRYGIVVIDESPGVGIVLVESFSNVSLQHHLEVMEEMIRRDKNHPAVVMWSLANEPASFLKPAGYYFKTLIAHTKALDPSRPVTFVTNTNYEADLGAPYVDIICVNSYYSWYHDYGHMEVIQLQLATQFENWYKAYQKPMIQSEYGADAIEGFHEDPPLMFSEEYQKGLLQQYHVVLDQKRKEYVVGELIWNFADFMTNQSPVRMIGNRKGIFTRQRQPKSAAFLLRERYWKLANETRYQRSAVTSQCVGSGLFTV
# Test: In vitro β-glucuronidase inhibition assay (p-nitrophenyl-β-D-glucuronide, absorbance at 405 nm)
# Assay type: biochemical
# Conditions: for IC50: bovine liver enzyme, substrate p-nitrophenyl-β-D-glucuronide, 37 °C, 30 min, triplicate, ± SEM, NA = Not active; for β-glucuronidase inhibitory activity in words: qualitative statement
# Description: Synthetic acyl hydrazides Schiff bases 1–28 were screened for their in vitro potential as β-glucoronidase inhibitors. The in vitro β-glucornidase inhibitory potential was evaluated by using the literature protocol.
# β-Glucuronidase (E.C. 3.2.1.31 from bovine liver, G-0251) and p-nitrophenyl-β-D-glucuronide (N-1627) were purchased From Sigma Chemical Co. (St. Louis, MO, USA). Anhydrous Na2CO3 and all other reagents of standard grade were obtained from E. Merck. The anhydrous EtOH and CHCl3 used in the experiments were dried employing the standard methods. All other solvents and reagents like the benzoyl chloride were of standard grade.
# β-D-Glucuronidase inhibition was determined by measuring the absorbance of the p-nitrophenol which is produce from the substrate at 405 nm. The total reaction volume was 250 µL. The reaction mixture contains 5 µL of test compound solution, 185 µL of 0.1 M acetate buffer, and 10 µL of enzyme, and it was incubated at 37 °C for 30 min. The plates were read on a multiplate reader at 405 nm after the addition of 50 µL of 0.4 mM p-nitrophenyl-β-D-glucuronide. All assays were performed in triplicate.
SMILES,IC50,"activity relative to the standard D-saccharic acid-1,4-lactone (fold better than standard by IC50)",β-glucuronidase inhibitory activity in words
COc1ccccc1C=CC=NNC(=O)COc1ccc(Cl)cc1C [Compound 1],9.2 ± 0.32 µM,fivefold better than the standard,excellent activity
COc1ccc(C=CC=NNC(=O)COc2ccc(Cl)cc2C)cc1 [Compound 2],,,inactive
"Cc1cc(Cl)ccc1OCC(=O)NN=Cc1ccccc1[N+](=O)[O-] [Compound 5, 2-(4-Chloro-2-methylphenoxy)-N'-[(2-nitrophenyl)methylidene]acetohydrazide]",9.47 ± 0.16 µM,,excellent activity
"Cc1cc(Cl)ccc1OCC(=O)NN=Cc1cccc([N+](=O)[O-])c1 [Compound 6, 2-(4-Chloro-2-methylphenoxy)-N'-[(3-nitrophenyl)methylidene]acetohydrazide]",,,inactivity
"Cc1cc(Cl)ccc1OCC(=O)NN=Cc1ccc(Cl)cc1 [Compound 7, 2-(4-Chloro-2-methylphenoxy)-N'-[-(4-chlorophenyl)methylidene]acetohydrazide]",14.7 ± 0.19 µM,,excellent activity
"Cc1cc(Cl)ccc1OCC(=O)NN=Cc1ccc(Cl)c(Cl)c1 [Compound 9, 2-(4-Chloro-2-methylphenoxy)-N'-[(3,4-dichlorophenyl)methylidene]acetohydrazide]",,,completely inactive
"Cc1cc(Cl)ccc1OCC(=O)NN=Cc1c(Cl)cccc1Cl [Compound 10, 2-(4-Chloro-2-methylphenoxy)-N'-[(2,6-dichlorophenyl)methylidene]acetohydrazide]",,,completely inactive
"Cc1cc(Cl)ccc1OCC(=O)NN=Cc1ccccc1F [Compound 11, 2-(4-Chloro-2-methylphenoxy)-N'-[-(2-fluorophenyl)methylidene]acetohydrazide]",19 µM and 19.6 µM,,excellent activity
"Cc1cc(Cl)ccc1OCC(=O)NN=Cc1ccsc1 [Compound 12, 2-(4-Chloro-2-methylphenoxy)-N'-[3-thienylmethylidene]acetohydrazide]",30.7 ± 1.49 µM,,excellent activity
"Cc1cc(Cl)ccc1OCC(=O)NN=Cc1ccco1 [Compound 13, 2-(4-Chloro-2-methylphenoxy)-N'-[-2-furylmethylidene]acetohydrazide]",,,completely inactive
"Cc1ccc(C=NNC(=O)COc2ccc(Cl)cc2C)o1 [Compound 14, 2-(4-Chloro-2-methylphenoxy)-N'-[-(5-methyl-2-furyl)methylidene]acetohydrazide]",,,completely inactive
"Cc1cc(Cl)ccc1OCC(=O)NN=Cc1cccc(O)c1O [Compound 15, 2-(4-Chloro-2-methylphenoxy)-N'-[-(2,3-dihydroxyphenyl)methylidene]acetohydrazide]",12 ± 0.16 µM,,excellent activity
"Cc1cc(Cl)ccc1OCC(=O)NN=Cc1ccc(O)c(O)c1 [Compound 16, 2-(4-Chloro-2-methylphenoxy)-N'-[-(3,4-dihydroxyphenyl)methylidene]acetohydrazide]",,,completely inactive
"CC(=NNC(=O)COc1ccc(Cl)cc1C)c1ccc(O)cc1 [Compound 17, 2-(4-Chloro-2-methylphenoxy)-N'-[1-(4-hydroxyphenyl)ethylidene]acetohydrazide]",,,completely inactive
"Cc1cc(Cl)ccc1OCC(=O)NN=Cc1cccc(O)c1 [Compound 18, 2-(4-Chloro-2-methylphenoxy)-N'-[(3-hydroxyphenyl)methylidene]acetohydrazide]",,,completely inactive
"CC(=NNC(=O)COc1ccc(Cl)cc1C)c1c(O)cc(O)cc1O [Compound 19, 2-(4-Chloro-2-methylphenoxy)-N'-[1-(2,4,6-trihydroxyphenyl)ethylidene]acetohydrazide]",,,completely inactive
"Cc1cc(Cl)ccc1OCC(=O)NN=Cc1ccc(O)cc1 [Compound 20, 2-(4-Chloro-2-methylphenoxy)-N'-[(4-hydroxyphenyl)methylidene]acetohydrazide]",,,completely inactive
"Cc1cc(Cl)ccc1OCC(=O)NN=Cc1cccc2ccccc12 [Compound 21, 2-(4-Chloro-2-methylphenoxy)-N'-[-1-naphthylmethylidene]acetohydrazide]",13.7 ± 0.4 µM,,excellent activity
"Cc1cc(Cl)ccc1OCC(=O)NN=Cc1ccc2ccccc2c1 [Compound 22, 2-(4-Chloro-2-methylphenoxy)-N'-[-2-naphthylmethylidene]acetohydrazide]",22 ± 0.14 µM,,excellent activity

# Source: PMC6271590, “Phenoxyacetohydrazide Schiff Bases: β-Glucuronidase Inhibitors” (Molecules, 2014)
